# In patent US6710051B1, “Screening method” (Klaus Trier APS, priority 1997, dated 2004):
# Read-outs that look alike come from different tables or passages of the source. Marks after values point to notes of the source that are not given here.
# What was measured:
# [1] = rabbits; cited from earlier work
# [2] = humans; cited from earlier work
# sclera [3] = assay: Content of proteoglycanes in rabbit sclera after long term treatment (alcian blue method); assay type: in vivo; set-up: Proteoglycanes Decrease compared to the control, anterior sclera / Proteoglycanes Increase compared to the control, anterior sclera / Proteoglycanes Increase compared to the control, posterior sclera / Effect on proteoglycan content of posterior sclera in % compared to control: concentration or dose not given beside the values; conditions: for Effect on proteoglycan content of posterior sclera in % compared to control: rabbit, Examples 2 and 4; for Content of proteoglycanes, anterior sclera / Content of proteoglycanes, posterior sclera: wet weight
# Description: (§1) Test animal: Charles River Deutschland Chinchilla Bastard female rabbits.
# (§2) Number of animals: 6 test animals and 6 control animals
# (§3) Age: approximately 8 weeks at the commencement of the test.
# (§4) Weight: 1.4-1.9 kg at the commencement of the test.
# Lightness/Darkness cycle: 12/12 hours.
# (§5) Cages: The animals live in identical cages made of stainless steel (Scanbur), length 1 m, depth 0.52 m, height 0.5 m.
# Food: Stanrab standard diet from Special Diet Services, P.O. Box 705, Witham Essex CM8 3AD, UK (further details, see Table A).
# (§6) Amount of food: Increasing from 75 g per day at the commencement of the test up to 130 g after three months.
# (§7) Experimental drinking water 1 contained theophyllin in a dose equivalent of 27 mg increasing to 63 mg (added as theophyllin and ethylendiamin in a dose of 33 to 77 mg) daily.
# (§8) Experimental drinking water 2 contained fluoxetine (Fontex, Lilly) in a dose equivalent of 2 mg increasing to 5 mg daily.
# Experimental diet 2 was added 4.5 g L-cystine per kg Stanrab standard diet equivalent of a daily L-cystine dose of 338 mg increasing to 585 mg per day. With respect to the supplement of L-cystine, the normal intake per day of the standard diet is 218 mg increasing to 377 mg L-cystine.
# (§9) Experimental diet 3 was added 7-methylxanthine 500 mg per kg Stanrab standard diet equivalent of a daily 7-methylxanthine dose of […] per day.
# (§10) Experimental diet 4 was added theobromine (3,7-dimethylxanthine) 500 mg per kg Stanrab standard diet equivalent of a daily theobromine dose of […] per day.
# (§11) Experimental diet 5 was added acetazolamide 500 mg per kg Stanrab standard diet equivalent of a daily acetazolamide dose of […] per day.
# Experimental diet 6 was added 4.5 g L-ornithine per kg Stanrab standard diet equivalent of a daily L-ornithine dose of 338 mg increasing to 585 mg per day.
# (§12) Collection of sample: Sclera biopsies are taken for analysis for proteoglycane content, distribution between the individual glycosaminoglycanes and the content of collagen specific amino acids. Four tests from each animal: Two samples from the front, 5×10 mm along limbus (without cornea), and two samples from the back, punch 10 mm corresponding to the center of the retina. Furthermore, tests are taken for electron microscopy (EM) from two animals in each group.
# Analyses: Samples for proteoglycane analysis are frozen down immediately. The samples are analyzed by Wieslab AB, IDEON, S-223 70 Lund, Sweden, by means of a method which has been described by Björnsson, S., Analytical Biochemistry 210, 282-291 (1993). The method comprises extraction by 20 microliters of 4 M guanidine-HCl, 50 Mm sodium acetate per mg wet weight over night by room temperatures. The extracts are centrifuged in order to remove debris. 20 microliters of supernatant are reduced 1/10 in extraction buffer and 20 microliters of reduced supernatant are mixed with 10 microliters of reagent 1 (see Björnsson, S., Analytical biochemistry 210, 282-291 (1993)) on a shaking table for 15 minutes. 200 microliters of reagent 2 are added and the tests are incubated for 60 minutes in order to precipitate the proteoglycanes. The proteoglycane/alcian blue precipitate is transferred to 96-wells MillBlotD apparatus and washed with 2×200 microliters of 40% DMSO, 0.05 M of MgCl2. The colour intensity of the wells are quantitated by microtech E3 scanner and Scan Analysis software (Biosoft, Cambridge, U.K.). Chrondroitine-6-sulphate (Sigma C4384) is used as the calibrator. All samples are analyzed in duplicate.
# The results of longterm treatment with each of the 8 substances specified above are shown in Example 2 (treatment for 12 weeks) and Example 4 (treatment for 10 weeks).
# sclera [4] = assay: Content of collagen specific amino acids in rabbit sclera after long term treatment (HPLC); assay type: in vivo; set-up: Hydroxylysine Decr. compared to the control / Hydroxyproline Inc. compared to the control / Proline Inc. compared to the control: concentration or dose not given beside the values; conditions: for Hydroxylysine content / Hydroxyproline content / Proline content: dried defatted weight
# From the text: as §1, §2, §3, §4, §5, §6, §7, §8, §9, §10, §11, §12
# Samples for analysis for content of collagen specific amino acids are frozen down immediately. The amino acid content is determined by HPLC-chromatography.
# The dried tissue with constant weight is minced into very fine particles with a pair of scissors, approximately 20 per piece of tissue. The small flakes from each original piece of tissue ate divided into two equally sized portions, one of which is employed for hydrolysis and the other one is kept for reference. The constant dry weight of each portion is known.
# From each resolubilized hydrolysate 3 aliquots of each 8 microliters and 3 aliquots of 40 μl are taken and transferred to separate polypropylene tubes in which 20 microliters of a solution of internal standard substances citrulline and 2 aminobutyric acid were added where the further method takes place.
# The taken aliquots from hydrolysate are dried in a vacuum exsiccator at 35° C. over night and subsequently submitted to derivatization with phenylisothiocyanate.
# The resulting phenylisothiocarbamates are transferred to the HPLC instrument for separation and quantification. A new set of calibration curves is established, 1 curve for each of the 19 amino acids, prior to the analysis of the samples from one investigation.
# The concentration range of standard samples exceed the ranges of amino acid concentrations in the unknowns. Hydroxyproline and proline are quantitated from the 8 microliter aliquots, and hydroxylysine is quantitated from the 40 microliter aliquots.
# eye [5] = conditions: test animals exposed to visual deprivation; cited from earlier work
# [6] = test system: retinal pigment epithelium; assay: c-wave at ERG and standing potential of the eye; conditions: in vivo
# From the text: Registration of c-Wave at ERG in animals (e.g. rabbits) is a well-developed examination technique (Skoog, K. O., Nilsson, S. E. G., Acta Ophthalmol. (Kph), 52: 759-773 (1974), Jarkman, S., Skoog, K. O., Doc. Ophthalmol., 60: 383-392 (1985)). Also intraoccular administration of test substances for test animals is also a well-described-technique (Textorius O., Doc. Ophthalmol., 63:349-358 (1986)). Alternatively, test substances can be administered intravenously (Jarkman, S., Doc. Ophthalmol. 60: 375-382 (1985)).
# skeletal RyR = molecular target: T1, skeletal RyR (Oryctolagus cuniculus, UniProt P11716); conditions: cited from earlier work
# T1 construct: Structure-activity Relationship of Xanthines and Skeletal Muscle Ryanodine Receptor/Ca^2+ Release Channel; from tissue; host or cells: Skeletal muscle
# T1 sequence (P11716 whole entry): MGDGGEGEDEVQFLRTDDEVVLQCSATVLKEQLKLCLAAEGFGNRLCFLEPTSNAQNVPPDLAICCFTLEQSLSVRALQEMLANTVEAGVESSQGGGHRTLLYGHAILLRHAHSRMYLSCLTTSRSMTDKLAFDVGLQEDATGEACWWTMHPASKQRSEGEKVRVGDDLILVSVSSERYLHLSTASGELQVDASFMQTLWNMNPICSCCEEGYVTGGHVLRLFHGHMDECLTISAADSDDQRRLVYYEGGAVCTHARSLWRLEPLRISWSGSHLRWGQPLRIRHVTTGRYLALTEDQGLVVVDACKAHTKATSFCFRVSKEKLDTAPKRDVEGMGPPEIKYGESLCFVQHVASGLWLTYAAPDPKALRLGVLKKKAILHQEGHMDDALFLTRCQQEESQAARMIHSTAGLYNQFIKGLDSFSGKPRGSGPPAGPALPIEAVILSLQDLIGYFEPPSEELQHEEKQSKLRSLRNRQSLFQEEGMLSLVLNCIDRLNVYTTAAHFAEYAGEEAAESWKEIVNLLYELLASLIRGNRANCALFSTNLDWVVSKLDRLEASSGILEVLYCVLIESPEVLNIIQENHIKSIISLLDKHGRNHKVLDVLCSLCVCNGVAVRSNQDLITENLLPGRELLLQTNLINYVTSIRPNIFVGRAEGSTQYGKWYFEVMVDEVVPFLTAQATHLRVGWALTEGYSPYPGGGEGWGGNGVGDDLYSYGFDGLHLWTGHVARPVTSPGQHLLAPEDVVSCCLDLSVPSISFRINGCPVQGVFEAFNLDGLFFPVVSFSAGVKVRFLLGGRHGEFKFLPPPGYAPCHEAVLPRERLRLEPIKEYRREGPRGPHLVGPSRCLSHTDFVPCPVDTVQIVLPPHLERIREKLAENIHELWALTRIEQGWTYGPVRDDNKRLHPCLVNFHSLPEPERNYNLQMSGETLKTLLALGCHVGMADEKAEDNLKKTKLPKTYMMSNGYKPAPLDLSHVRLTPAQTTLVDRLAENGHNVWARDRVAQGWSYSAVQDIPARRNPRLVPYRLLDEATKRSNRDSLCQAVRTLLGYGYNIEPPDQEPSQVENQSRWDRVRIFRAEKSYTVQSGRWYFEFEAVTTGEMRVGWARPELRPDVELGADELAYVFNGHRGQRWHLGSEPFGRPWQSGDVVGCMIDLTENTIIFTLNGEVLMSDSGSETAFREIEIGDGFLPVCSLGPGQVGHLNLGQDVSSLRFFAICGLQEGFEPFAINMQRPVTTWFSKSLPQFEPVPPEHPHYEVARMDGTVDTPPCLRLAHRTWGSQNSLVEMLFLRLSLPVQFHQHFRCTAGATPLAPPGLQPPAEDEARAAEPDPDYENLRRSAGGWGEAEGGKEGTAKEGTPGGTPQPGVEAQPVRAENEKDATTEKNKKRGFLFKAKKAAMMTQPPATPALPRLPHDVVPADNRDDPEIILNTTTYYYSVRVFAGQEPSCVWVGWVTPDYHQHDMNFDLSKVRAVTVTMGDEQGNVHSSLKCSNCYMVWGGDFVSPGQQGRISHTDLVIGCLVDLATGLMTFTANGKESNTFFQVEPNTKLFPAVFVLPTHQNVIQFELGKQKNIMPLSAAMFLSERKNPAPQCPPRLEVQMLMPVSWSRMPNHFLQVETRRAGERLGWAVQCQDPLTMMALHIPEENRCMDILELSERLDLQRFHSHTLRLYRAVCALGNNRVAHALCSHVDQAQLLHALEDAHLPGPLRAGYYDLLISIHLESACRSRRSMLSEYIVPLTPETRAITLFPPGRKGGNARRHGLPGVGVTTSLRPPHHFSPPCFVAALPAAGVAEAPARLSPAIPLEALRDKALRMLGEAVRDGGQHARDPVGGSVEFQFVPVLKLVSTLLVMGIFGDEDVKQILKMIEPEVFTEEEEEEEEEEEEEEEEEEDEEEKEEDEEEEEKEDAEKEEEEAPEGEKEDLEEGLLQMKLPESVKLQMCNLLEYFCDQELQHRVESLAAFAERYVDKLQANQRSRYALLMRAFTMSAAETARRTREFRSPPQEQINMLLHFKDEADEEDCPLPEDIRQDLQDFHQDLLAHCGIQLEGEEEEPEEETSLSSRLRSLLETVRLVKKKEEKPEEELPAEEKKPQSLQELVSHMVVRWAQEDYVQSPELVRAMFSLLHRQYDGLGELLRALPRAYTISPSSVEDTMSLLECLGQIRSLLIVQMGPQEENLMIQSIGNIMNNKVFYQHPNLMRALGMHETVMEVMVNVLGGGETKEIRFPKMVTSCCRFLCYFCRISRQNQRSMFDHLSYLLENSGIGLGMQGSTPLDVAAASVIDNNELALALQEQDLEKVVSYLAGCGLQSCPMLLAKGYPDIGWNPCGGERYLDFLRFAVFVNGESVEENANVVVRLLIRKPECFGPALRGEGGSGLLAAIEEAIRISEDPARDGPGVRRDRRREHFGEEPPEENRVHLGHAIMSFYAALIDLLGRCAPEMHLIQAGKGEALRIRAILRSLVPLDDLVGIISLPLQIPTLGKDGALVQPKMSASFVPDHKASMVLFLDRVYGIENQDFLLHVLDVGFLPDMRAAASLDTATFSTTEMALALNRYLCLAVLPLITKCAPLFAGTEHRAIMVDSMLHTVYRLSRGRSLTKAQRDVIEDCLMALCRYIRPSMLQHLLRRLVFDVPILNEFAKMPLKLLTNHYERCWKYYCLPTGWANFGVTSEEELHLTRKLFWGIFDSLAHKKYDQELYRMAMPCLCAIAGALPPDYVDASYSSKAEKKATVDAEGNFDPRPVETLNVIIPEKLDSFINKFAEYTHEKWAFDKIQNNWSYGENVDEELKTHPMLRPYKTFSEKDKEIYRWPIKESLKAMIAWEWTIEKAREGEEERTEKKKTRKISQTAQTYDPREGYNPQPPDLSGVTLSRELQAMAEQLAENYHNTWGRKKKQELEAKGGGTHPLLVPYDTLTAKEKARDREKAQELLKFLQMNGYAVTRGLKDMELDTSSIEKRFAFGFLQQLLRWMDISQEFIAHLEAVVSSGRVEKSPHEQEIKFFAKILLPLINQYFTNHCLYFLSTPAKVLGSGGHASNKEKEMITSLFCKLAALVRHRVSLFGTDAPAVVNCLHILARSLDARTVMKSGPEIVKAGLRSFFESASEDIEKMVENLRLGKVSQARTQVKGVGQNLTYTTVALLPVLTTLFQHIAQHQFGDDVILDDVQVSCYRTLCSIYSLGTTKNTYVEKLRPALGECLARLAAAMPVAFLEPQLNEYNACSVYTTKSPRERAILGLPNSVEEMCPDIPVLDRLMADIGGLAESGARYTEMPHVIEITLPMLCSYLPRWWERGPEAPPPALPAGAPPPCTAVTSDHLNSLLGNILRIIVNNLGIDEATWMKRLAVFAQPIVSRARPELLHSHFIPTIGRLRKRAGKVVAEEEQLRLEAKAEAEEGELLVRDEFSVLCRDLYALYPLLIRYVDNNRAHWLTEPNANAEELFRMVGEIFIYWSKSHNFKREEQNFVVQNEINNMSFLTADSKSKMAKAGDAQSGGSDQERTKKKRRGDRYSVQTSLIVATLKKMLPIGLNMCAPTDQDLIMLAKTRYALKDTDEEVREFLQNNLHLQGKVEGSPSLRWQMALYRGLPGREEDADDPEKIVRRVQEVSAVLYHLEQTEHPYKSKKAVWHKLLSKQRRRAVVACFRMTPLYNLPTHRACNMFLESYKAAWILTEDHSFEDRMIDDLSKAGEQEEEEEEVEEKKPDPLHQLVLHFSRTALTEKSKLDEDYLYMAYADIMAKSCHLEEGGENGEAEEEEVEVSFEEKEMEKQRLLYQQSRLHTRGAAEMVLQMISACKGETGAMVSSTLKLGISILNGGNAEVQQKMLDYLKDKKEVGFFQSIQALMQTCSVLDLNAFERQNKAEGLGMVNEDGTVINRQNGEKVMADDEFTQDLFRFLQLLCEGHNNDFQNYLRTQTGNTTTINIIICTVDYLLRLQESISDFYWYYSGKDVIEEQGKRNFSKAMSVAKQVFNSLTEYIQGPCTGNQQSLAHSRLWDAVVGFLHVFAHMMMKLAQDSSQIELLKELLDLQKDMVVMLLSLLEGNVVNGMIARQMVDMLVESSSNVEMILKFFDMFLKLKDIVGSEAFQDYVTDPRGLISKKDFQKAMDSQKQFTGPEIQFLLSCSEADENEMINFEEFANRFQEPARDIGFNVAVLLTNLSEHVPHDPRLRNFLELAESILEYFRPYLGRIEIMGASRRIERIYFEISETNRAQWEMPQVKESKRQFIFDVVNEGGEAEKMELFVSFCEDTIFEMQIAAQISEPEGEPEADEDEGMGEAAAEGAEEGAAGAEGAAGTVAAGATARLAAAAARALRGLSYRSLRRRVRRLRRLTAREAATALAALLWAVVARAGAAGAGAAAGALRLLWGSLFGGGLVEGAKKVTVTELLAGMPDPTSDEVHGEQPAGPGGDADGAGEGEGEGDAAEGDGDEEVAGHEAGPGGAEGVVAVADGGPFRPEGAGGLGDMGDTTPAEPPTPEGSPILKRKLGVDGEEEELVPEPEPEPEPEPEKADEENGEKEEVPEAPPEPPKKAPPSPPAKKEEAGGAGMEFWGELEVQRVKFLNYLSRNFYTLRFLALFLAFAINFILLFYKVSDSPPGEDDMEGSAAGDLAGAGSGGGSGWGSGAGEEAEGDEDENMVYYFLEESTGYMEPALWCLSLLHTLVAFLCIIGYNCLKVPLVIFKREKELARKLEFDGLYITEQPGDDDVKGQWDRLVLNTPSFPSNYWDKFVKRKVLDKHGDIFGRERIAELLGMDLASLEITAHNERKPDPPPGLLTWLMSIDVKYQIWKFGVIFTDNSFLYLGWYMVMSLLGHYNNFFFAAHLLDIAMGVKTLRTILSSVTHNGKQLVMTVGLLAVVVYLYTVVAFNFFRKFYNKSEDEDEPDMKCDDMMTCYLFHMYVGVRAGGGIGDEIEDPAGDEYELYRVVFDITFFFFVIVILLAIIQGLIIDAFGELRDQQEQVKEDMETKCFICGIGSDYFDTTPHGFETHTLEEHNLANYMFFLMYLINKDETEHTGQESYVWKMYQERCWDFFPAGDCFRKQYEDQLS
# sclera [7] = assay: Content of collagen specific amino acids in rabbit sclera after long term treatment (HPLC); assay type: in vivo; conditions: dried defatted weight, 10 weeks treatment (Example 4)
# eye [8] = conditions: animal, abnormal postnatal growth of the eye; cited from earlier work
# [9] = anterior sclera, 3 months treatment
# [10] = posterior sclera, 3 months treatment
# [11] = posterior sclera, 10 weeks treatment (Example 4)
smiles,measurement,setting,value
"Cn1c(=O)c2c(ncn2C)n(C)c1=O [Caffeine, 1,3,7-Trimethylxanthine]",half-life period,[1],approximately 1 hour
same,half-life period,[2],approximately 5 hours
same,"Proteoglycanes Increase compared to the control, anterior sclera",sclera [3]; 3 months treatment,19%
same,"Proteoglycanes Increase compared to the control, posterior sclera",sclera [3]; 3 months treatment,19%
same,Effect on proteoglycan content of posterior sclera in % compared to control,sclera [3],119%
same,"Content of proteoglycanes, anterior sclera",sclera [3]; 3 months treatment,3.2 +/− 0.8 μg PG/mg tissue
same,"Content of proteoglycanes, posterior sclera",sclera [3]; 3 months treatment,3.2 +/− 0.5 μg PG/mg tissue
same,Hydroxyproline Inc. compared to the control,sclera [4]; [9],14%
same,Proline Inc. compared to the control,sclera [4]; [9],12%
same,Hydroxylysine content,sclera [4]; [9],39 +/− 19 nanomol/mg tissue
same,Hydroxyproline content,sclera [4]; [9],688 +/− 36* nanomol/mg tissue
same,Proline content,sclera [4]; [9],993 +/− 18* nanomol/mg tissue
same,Hydroxylysine Decr. compared to the control,sclera [4]; [10],14%
same,Hydroxyproline Inc. compared to the control,sclera [4]; [10],22%
same,Proline Inc. compared to the control,sclera [4]; [10],17%
same,Hydroxylysine content,sclera [4]; [10],37 +/− 16 nanomol/mg tissue
same,Hydroxyproline content,sclera [4]; [10],668 +/− 61 nanomol/mg tissue
same,Proline content,sclera [4]; [10],947 +/− 38 nanomol/mg tissue
CN1CCc2cccc3c2[C@H]1Cc1ccc(O)c(O)c1-3 [apomorphine],development of myopia,eye [5],inhibits
"Cn1c(=O)c2[nH]cnc2n(C)c1=O [Theophylline, 1,3-Dimethylxanthine]",content of proteoglycanes in sclera (in words),sclera [3]; comment to the examples,reduces
same,Effect on proteoglycan content of posterior sclera in % compared to control,sclera [3],100%
same,c-wave at ERG,[6],reduces
same,standing potential of the eye,[6],reduces
same,content of hydroxylysine (in words),sclera [4]; comment to the examples,reduces
same,content of the collagen specific amino acids hydroxyproline and proline (in words),sclera [4]; comment to the examples,increase
Cn1cnc2[nH]c(=O)[nH]c(=O)c21 [7-Methylxanthine],Effect on [3H ryanodine binding in % compared to control,"skeletal RyR; values of Table 3 without AMP/AMPPCP, caffeine represented by 1,7-dimethylxanthine",204%
same,Bound [3H]ryanodine % of control,"skeletal RyR; xanthine […], 1 mmol/l AMPPCP, control (-xanthine) = 100",225 ± 11 % of control
same,Bound [3H]ryanodine pmol/mg protein,"skeletal RyR; xanthine […], 1 mmol/l AMPPCP, means±SD of 3-4 experiments",3.80 ± 0.19 pmol/mg protein
same,"Bound [3H]ryanodine, % of control, +1 mmol/l AMPPCP","skeletal RyR; xanthine […], +1 mmol/l AMPPCP, control (-xanthine) = 100",225 ± 11 % of control
same,"Bound [3H]ryanodine, % of control, +3 mmol/l AMP","skeletal RyR; xanthine […], +3 mmol/l AMP, control (-xanthine) = 100",214 ± 15 % of control
same,"Proteoglycanes Decrease, anterior sclera",sclera [3]; 10 weeks treatment (Example 4),14%
same,"Proteoglycanes Increase, posterior sclera",sclera [3]; 10 weeks treatment (Example 4),14%
same,content of proteoglycans in posterior sclera (in words),"sclera [3]; Example 4, versus control",near significant increase
same,Effect on proteoglycan content of posterior sclera in % compared to control,sclera [3],114%
same,"Content of proteoglycanes, anterior sclera",sclera [3]; 10 weeks treatment (Example 4),2.5 +/− 0.5 μg PG/mg tissue
same,"Content of proteoglycanes, posterior sclera",sclera [3]; 10 weeks treatment (Example 4),3.3 +/− 0.3 μg PG/mg tissue
same,Hydroxylysine content,sclera [7]; anterior sclera,45 +/− 3 nanomol/mg tissue
same,Hydroxyproline content,sclera [7]; anterior sclera,667 +/− 73 nanomol/mg tissue
same,Proline content,sclera [7]; anterior sclera,951 +/− 111 nanomol/mg tissue
same,Hydroxylysine content,sclera [7]; posterior sclera,44 +/− 7 nanomol/mg tissue
same,Hydroxyproline content,sclera [7]; posterior sclera,719 +/− 81* nanomol/mg tissue
same,Proline content,sclera [7]; posterior sclera,1018 +/− 108* nanomol/mg tissue
same,content of hydroxyproline and proline in posterior sclera (in words),"sclera [4]; Example 4, versus control",significantly higher content
same,Hydroxylysine Inc.,sclera [4]; [11],7%
same,Hydroxyproline Inc.,sclera [4]; [11],16%
same,Proline Inc.,sclera [4]; [11],10%
CN1CCN(CC(=O)N2c3ccccc3C(=O)Nc3cccnc32)CC1 [pirenzepine],axial longitudinal growth,eye [8],inhibited
